Experimental data taken from patent publication US20080051315A1 (priority 2003, published 2008).

Tests used:
GRPR = GRPR (Mus musculus, UniProt P21729); format: cell-based
GABAA receptors = experiment: block of sIPSCs in pyramidal neurons of the lateral amygdala; format: cell-based, mouse; settings: picrotoxin 50 uM; n=10; holding potential -70 mV
Protocol: Amygdala slices (250-300 um) were prepared from 3-5 week old control and GRPR knockout mice (littermates) with a vibratome. Slices were continuously superfused in solution containing (in mM): 119 NaCl, 2.5 KCl, 2.5 CaCl2,1.0 MgSO4, 1.25 NaH2PO4, 26.0 NaHCO3, 10 glucose, and equilibrated with 95% O2 and 5% CO2 [pH 7.3-7.4] at room temperature. Whole-cell recordings of evoked compound EPSCs or spontaneous GABA-mediated IPSCs were obtained from pyramidal cells in the lateral amygdala under visual guidance (DIG/ infrared optics) with an EPC-9 amplifier and Pulse v8.09 software (HEKA Elektronik). […] Series resistance was monitored throughout experiment and was in a range of […]. […] The EPSC amplitudes were measured as the difference between the mean current during a prestimulus baseline and the mean current over a 2 ms-window at the peak of the response. […]
The spontaneous IPSCs were recorded on videotape for off line analysis in the presence of 20 uM CNQX. Data were analyzed with the Mini Analysis Program v5.2.4 (Synaptosoft Inc., Decatur, Ga.; Bolshakov et al., 2000).
We recorded spontaneous inhibitory postsynaptic currents (sIPSCs) in the pyramidal neurons having blocked the AM PA (a-amino-3-hydroxy-5-methyl-4-isoxazolepropionic acid) receptor-mediated responses (FIG. 2) with CNQX (6-cyano-7-nitroquinoxaline-2,3-dione, 20 uM).

[1] = tested on: pyramidal neurons in slices from GRPR knockout mice; format: cell-based, mouse

Sequence of GRPR (P21729 whole entry): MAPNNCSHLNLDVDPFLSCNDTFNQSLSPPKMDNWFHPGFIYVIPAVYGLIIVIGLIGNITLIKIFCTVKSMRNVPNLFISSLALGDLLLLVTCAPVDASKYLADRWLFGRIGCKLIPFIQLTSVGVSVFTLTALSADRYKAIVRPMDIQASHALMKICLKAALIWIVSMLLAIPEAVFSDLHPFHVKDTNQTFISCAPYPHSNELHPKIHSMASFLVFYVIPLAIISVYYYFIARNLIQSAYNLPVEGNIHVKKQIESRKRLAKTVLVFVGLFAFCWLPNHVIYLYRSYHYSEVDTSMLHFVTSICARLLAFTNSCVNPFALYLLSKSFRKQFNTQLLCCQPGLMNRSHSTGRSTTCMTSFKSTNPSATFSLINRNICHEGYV

NC1=N[C@H](O)[C@H]2[C@H]3O[C@]4(O)O[C@@H]([C@@H](O)[C@@]2(N1)[C@@H]4O)[C@]3(O)CO [TTX, tetrodotoxin]
effect of GRP on frequency of sIPSCs in the presence of TTX (GRPR): blocking the effects of the agonist

picrotoxin
block of sIPSCs (GABAA receptors): completely blocked

gastrin-releasing peptide [GRP]
effect of GRP on frequency of sIPSCs (in words) [1]: failed to increase | frequency of sIPSCs [1]: 5.64±0.67 Hz
